The values below come from patent US4753949A, “2-chloronicergoline having antihypoxic activity” (Richter Gedeon Vegyeszeti Gyar Rt., priority 1985, dated 1988).

For assay [1] the following is noted: literature; cited from earlier work.
A further assay has as its system α-adrenergic receptor. The note with it: Bernardi et al. 1975; cited from earlier work.
Assay [2] in a line: Antihypoxic effect: survival time under hypobaric hypoxic conditions (170 mmHg). Particulars: for Antihypoxic effect, survival time as % of the control: rats, 60 min before, control 3.3 ± 0.19 min. The class given is in vivo, rats (male SHR). As to the method: (§1) The studies were carried out on male SHR rats weighing 160 to 180 g as well as on CFLP mice of both sexes weighing 18 to 21 g. The compounds to be tested were orally administered in a volume of 5 ml/kg of body-weight (in the case of rats) or in a volume of 10 ml/kg of body-weight (in case of mice) at the 60th minute before beginning the experiment.
(§2) The results are expressed as percentages.
Investigation of the antihypoxic effect
[I. Baumel et al.: Proc. Soc. Exp. Ther. Biol. N.Y. 132, 629 (1969]
Rats (n=5) were treated with various doses of the compounds to be tested and after 60 minutes the survival time was measured under hypobaric hypoxic conditions (170 mmHg). In the Table, the survival time is expressed as the percentage of that of the control group.

Assay [3] can be described thus: Learning-facilitating effect: one-trial passive avoidance. The note with it: for Facilitation of learning, avoidance latency period as % of the control: 5.0 mg/kg p.o., mice, retest after one week, control latency 164.0 ± 34.4 sec (nicergoline), 77.0 ± 16.4 sec (2-chloronicergoline). The assay is classed as in vivo, mice (CFLP). As to the method:
as §1, §2
Investigation of the learning-facilitating effect
[W. B. Essmann and H. Alpern: Psychol. Rep. 41, 731 (1964)]
Mice (n=10) were treated with 5 mg/kg doses of the compounds to be tested, then the animals were conditioned by the one-trial passive avoidance method. The animals were placed on the platform of the test box, whereupon after entering into the dark box, they received an electric footshock (1.5 mA, 0.3 sec). One week later, the animals were retested: the mean of the latency period of the entering (avoidance) was compared to the control value and expressed as the percentage thereof.

The nature of assay [4]: Antagonism of the acquisition-inhibitory effect of hypoxia (shuttle box, normobaric hypoxia, 6% O2). The class given is in vivo, rats (male SHR). The note with it: for Antagonism of the acquisition-inhibitory effect of hypoxia, CAR Δ %: rats, third day, 6% O2. As to the method:
as §1, §2
Antagonism of the acquisition-inhibitory effect of hypoxia
Rats (n=4) were daily treated with various doses of the compounds to be tested, then conditioned in an automatic six-channel shuttle box (VKI) for 3 days [with the following parameters: 50 cycles/day, 15 seconds intersignal period, 15 seconds light stimulus, 10 seconds light and electric footshock (0.8 mA)] under normobaric hypoxic conditions (6% O2). The values of the conditioned avoidance responses on the third day were expressed as the percentage of the deviation from the control value (CAR Δ%).

In the next assay the target is α1-adrenergic receptor. Put plainly: α1-adrenergic receptor binding (3H-prazosine). The arrangement: species or system Hannover Wistar rats. Particulars: for IC50 value of α-adrenergic receptor activity (in words) / α-adrenergic receptor activity compared between 2-chloronicergoline and nicergoline (in words): Table 2 discussion; for IC50: rat cortex membrane, 0.5 nmole 3H-prazosine, 23° C., 30 min, pH 8.

The next assay addresses T1, D-2 receptor (Rattus norvegicus, UniProt P61169).
T1 construct: the striatum from their cortex was prepared; from tissue; host or cells: striatum membranes of Hannover Wistar rats
Nature of the assay: D-2 receptor binding (3H-spiroperidol). Also noted: species or system Hannover Wistar rats. The note with it: for IC50: rat striatum, 0.5 nmole 3H-spiroperidol, 37° C., 15 min, pH 7.4. On the procedure: Investigation of the D-2 receptor binding
Hannover Wistar rats were decapitated and the striatum from their cortex was prepared. The striata were homogenized in a 10-fold volume of a cold buffer solution (50 mmoles of TRIS HCl, 120 mmoles of NaCl, 2 mmoles of KCl, 1 mmole of MgCl2 and 5 mmoles of CaCl2 at pH 7.4) and centrifuged at 45000 g for 15 minutes.
For investigating the D-2 receptor binding, a membrane preparation, a buffer, a ligand (0.5 nmole of ^3 H-spiroperidol) and the compound to be tested in a defined concentration were used in a total volume of 2 ml.

The test system of assay [5] is 45Ca2+ uptake into synaptosomes. Put plainly: 45Ca2+ uptake into synaptosomes. The assay is classed as biochemical. The note with it: rat brain cortex synaptosomes, K+ (45 mmoles) induced, 37° C., pre-incubation 20 min; read-out: IC50 45Ca2+ (synaptosomal uptake). As to the method:
Investigation of the ^45 Ca^2+ uptake into synaptosomes
The synaptosomal fraction was prepared from rat brain cortex according to the method of Wu et al. [J. Neurochem. 39, 700 (1982)], with a protein content of 20 mg/ml.
For the experiment, a buffer solution (112 mmoles of NaCl, 5 mmoles of KCl, 1.3 mmoles of MgCl2, 1.2 mmoles of NaH2 PO4, 1.2 mmoles of CaCl2, 10 mmoles of glucose and 20 mmoles of TRIS adjusted to pH 7 by carbogen at 37° C.) was used. The mixture containing the buffer solution, the compound to be tested and 1 mg of synaptosomes in a total volume of 1 ml was pre-incubated at 37° C. for 20 minutes and then, the K^+ (45 mmoles) induced ^45 Ca^2+ […] and, for control, the Na^+ (45 mmoles) induced ^45 Ca^2+ uptake were measured. The reaction was stopped by adding 5 ml of a buffer solution (120 mmoles of NaCl, 5 mmoles of KCl, 5 mmoles of EGTA and 20 mmoles of TRIS, at pH 7.4). […] The radioactivity remaining on the filter was determined in 10 ml of scintillation solution.

In assay [6] the target is T2, α2-adrenergic receptor (Rattus norvegicus, UniProt P22909).
T2 sequence (P22909 1-465): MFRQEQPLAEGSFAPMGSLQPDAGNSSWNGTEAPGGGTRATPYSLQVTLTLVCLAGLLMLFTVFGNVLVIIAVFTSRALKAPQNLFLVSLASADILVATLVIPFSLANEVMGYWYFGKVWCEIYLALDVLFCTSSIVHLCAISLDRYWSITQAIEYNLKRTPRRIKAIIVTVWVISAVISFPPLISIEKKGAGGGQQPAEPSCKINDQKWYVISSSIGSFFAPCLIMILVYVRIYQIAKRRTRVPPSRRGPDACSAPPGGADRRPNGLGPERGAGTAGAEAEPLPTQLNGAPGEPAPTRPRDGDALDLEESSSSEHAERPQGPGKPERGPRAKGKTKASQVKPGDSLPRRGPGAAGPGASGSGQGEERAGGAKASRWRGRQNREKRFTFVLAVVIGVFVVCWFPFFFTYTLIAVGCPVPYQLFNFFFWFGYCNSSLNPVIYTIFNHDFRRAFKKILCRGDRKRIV
Put plainly: biochemical.
Experimental: (§3) For the determination of the non-specific binding, 10 μmoles of phentolamine were used. Investigation of the α2 -adrenergic receptor binding
(§4) Hannover Wistar rats were decapitated, their cortexes were prepared and homogenized in a 30-fold volume of a buffer solution (50 μmoles of TRIS HCl, at pH 7.4). The membrane was centrifuged at 45000 g twice for 15 minutes and then suspended in the buffer in a concentration of 50 ml/g (in a protein concentration of 0.9 to 1.0 mg/ml).
(§5) For investigating the α2 -receptor binding, a membrane preparation, a ligand (1.0 nmole of ^3 H Rx 781094=^3 H-1 dazoxane) and the compound to be tested were used in a total volume of 1 ml. After an incubation at 23° C. for 20 minutes, the samples were filtered through a Whatman GF/B filter and washed 4 times with 4 ml of buffer solution each.
(§6) For the determination of the non-specific binding, 10 μmoles of phentolamine were used.

Assay [7] concerns the target T2, α2-adrenergic receptor. The note with it: versus nicergoline.
Experimental: as §3, §4, §5, §6

T1 sequence (P61169 whole entry): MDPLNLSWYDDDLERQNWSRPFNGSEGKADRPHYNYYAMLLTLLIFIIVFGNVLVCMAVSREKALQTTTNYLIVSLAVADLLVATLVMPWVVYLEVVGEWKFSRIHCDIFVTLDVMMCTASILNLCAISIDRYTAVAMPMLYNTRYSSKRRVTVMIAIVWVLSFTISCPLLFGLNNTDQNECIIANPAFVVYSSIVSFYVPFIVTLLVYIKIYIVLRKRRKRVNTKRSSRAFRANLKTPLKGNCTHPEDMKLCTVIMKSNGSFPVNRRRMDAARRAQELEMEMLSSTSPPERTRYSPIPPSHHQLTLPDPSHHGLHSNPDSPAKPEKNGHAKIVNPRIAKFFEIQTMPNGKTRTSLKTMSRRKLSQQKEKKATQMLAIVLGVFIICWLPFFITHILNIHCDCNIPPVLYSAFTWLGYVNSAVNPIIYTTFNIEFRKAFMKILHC

Consider `CO[C@]12C[C@@H](COC(=O)c3cncc(Br)c3)CN(C)[C@@H]1Cc1c(Br)n(C)c3cccc2c13` [2-bromonicergoline], for which, in assay [1], the “vasodilatory effect (in words)” value is “vasodilatory”. The “α-adrenerg blocking effect (in words)” value with α-adrenergic receptor is given as “α-adrenerg blocking effect”.

Consider `CO[C@]12C[C@@H](COC(=O)c3cncc(Br)c3)CN(C)[C@@H]1Cc1cn(C)c3cccc2c13` [Nicergoline, 1,6-dimethyl-10α-methoxyergoline-8β-methanol 5-bromonicotinate], for which the entries for the “Antihypoxic effect, survival time as % of the control” value in assay [2] (1.0 mg/kg p.o.) and in [2] (2.5 mg/kg p.o.) were 103% and 109%, respectively. Besides, the “Facilitation of learning, avoidance latency period as % of the control” value in assay [3] is 131%. Also, the “Antagonism of the acquisition-inhibitory effect of hypoxia, CAR Δ %” value in assay [4] (10.0 mg/kg p.o.) worked out at 150%. Moreover, the “IC50 value of α-adrenergic receptor activity (in words)” value on α1-adrenergic receptor is on record as “low”. For the same compound, the “α-adrenergic receptor activity compared between 2-chloronicergoline and nicergoline (in words)” value in the assay with α1-adrenergic receptor was “practically identical”. The IC50 (as a rule, the midpoint of a concentration-inhibition curve) at α1-adrenergic receptor came to 5.3 nM; at D-2 receptor it was 71.4 nM; in assay [5] it was 26700 nM; at α2-adrenergic receptor [6], 176 nM. The “vasodilatory effect (in words)” value in assay [1] is “peripheral vasodilatory agent”.

Regarding `CO[C@]12C[C@@H](COC(=O)c3cncc(Br)c3)CN(C)[C@@H]1Cc1c(Cl)n(C)c3cccc2c13` [2-Chloronicergoline, 2-chloronicergoline], the “hypoxic tolerance (in words)” value in [2] (1.0 mg/kg) is on record as “significantly increased”. Moreover, the “Antihypoxic effect, survival time as % of the control” value in [2] (1.0 mg/kg p.o.) came out at 155%; in [2] (2.5 mg/kg p.o.) it was 276%. Moreover, in assay [3], the “Facilitation of learning, avoidance latency period as % of the control” value was found to be 182%. Also, the “learning-facilitating effect compared with nicergoline (in words)” value in assay [3] (same doses, versus nicergoline) is listed as “significantly better than that of nicergoline”. For the same compound, in assay [4] (2.5 mg/kg p.o.), the “Antagonism of the acquisition-inhibitory effect of hypoxia, CAR Δ %” value is recorded as 150%. For the same compound, the “dose normalizing deteriorated performance under normobaric hypoxia, times lower than that of nicergoline” value in assay [4] (versus nicergoline) is 4 times. On α1-adrenergic receptor, the “IC50 value of α-adrenergic receptor activity (in words)” value is listed as “low”. For the same compound, the “α-adrenergic receptor activity compared between 2-chloronicergoline and nicergoline (in words)” value in the assay with α1-adrenergic receptor was “practically identical”. In addition, the IC50 at α1-adrenergic receptor was 9.5 nM; on D-2 receptor, 877 nM; in [5], 7000 nM; against α2-adrenergic receptor [6], 24.2 nM. In addition, the “α-adrenoceptor selectivity (in words)” value with α1-adrenergic receptor (shown by D-2/α1 selectivity ratio) was “pronounced”. Besides, on D-2 receptor (ratio of IC50 values), the “Selectivity ratio D-2/α1” value is reported as 92.3 nmole/nmole. Besides, the “D-2 receptor activity, times lower than that of nicergoline” value at D-2 receptor (versus nicergoline) was 12 times. Further, at α2-adrenergic receptor [7], the “α2-adrenoceptor activity, times as high as that of nicergoline” value is on record as “about 13 times”.
